{"source": "patent US20060008512A1", "about": "“Composition and methods for improved animal performance” (priority 2004, published 2006)", "key": {"[1]": {"test_system": "Hy-Line W-36 White Leghorn hens", "details": "for Ovary Weight per hen / Oviduct Weight per hen: day 34", "source_text": "Experiment 3. […] The photoperiod serves as the primary environmental signal that regulates reproductive function in many avian species. Increasing the photoperiod promotes maturation of the gonads and reproductive tract, whereas reducing the photoperiod causes the gonads and reproductive tract to regress and molting to occur."}, "Bovans caged laying hens": {"test_system": "Bovans caged laying hens", "assay": "Experiment 6: molting of caged laying hens with dietary L-thyroxine or TIC plus MgO or sodium salicylate", "format": "in vivo, chicken", "details": "10 hours of light daily", "source_text": "Experiment 6. Molting of Caged Laying with Dietary L-Thyroxine or Thyroactive Iodinated Casein Plus MgO or Sodium Salicylate.\nIn Experiment 6, a conventional feed withdrawal molting procedure was compared with 5 dietary thyroxine treatments. Body weight loss after 9 days was greater, days to 0% egg production (9 days) shorter, ovary plus oviduct weight numerically lighter on day 9 of treatment, but eggs collected on day 4 of treatment had thinner shells, in the feed withdrawal group."}, "turkey breeder hens": {"test_system": "turkey breeder hens", "assay": "Experiment 7: molting of turkey breeder hens with dietary L-thyroxine, porcine thyroid powder or TIC with or without protease", "format": "in vivo", "details": "for Ending (10 d) Body Wt / Liver Weight / Ovary Weight / Oviduct Weight: turkey breeder hens, 6 per treatment", "source_text": "Experiment 7. Molting of Turkey Breeder Hens with Dietary L-Thyroxine, Porcine Thyroid Powder, or Thyroactive Iodinated Casein With or Without Protease. Turkey breeder hens were molted with various dietary thyroxine treatments at Diamond K Research, […]. (Jun. 20-Jul. 1, 2005)."}, "[2]": {"test_system": "Cobb broiler breeder hens and roosters", "from_the_text": "Molting Cobb Broiler Breeder Hens and Roosters with Dietary Thyroxine."}, "broiler chickens": {"test_system": "broiler chickens", "details": "1 mg/kg of diet, 0 to 28 days of age, cited from earlier work"}, "fine-wool Merino wethers": {"test_system": "fine-wool Merino wethers", "details": "60 mg thyroxine implants in summer and autumn; cited from earlier work"}, "[3]": {"details": "40 mg T4/kg diet, listed as L-T"}, "[4]": {"details": "10 mg T4/kg diet fed for 10 days"}, "[5]": {"details": "25 mg T4/kg diet fed for 10 days"}, "[6]": {"details": "40 mg T4/kg diet fed for 10 days"}}, "note": "Where two headings read alike, the source gives them in different places. Marks after values point to notes of the source that are not given here."}
{"smiles": "N[C@@H](Cc1cc(I)c(Oc2cc(I)c(O)c(I)c2)c(I)c1)C(=O)O", "note": "[L-thyroxine, 3,5,3′,5′-tetraiodo-L-thyronine]", "values": [{"measurement": "Hens molted", "setting": "[1]; 20 mg T4/kg groups, either chamber", "result": "None of the hens"}, {"measurement": "Time to significantly reduced egg production", "setting": "[1]; 20 mg T4/kg, 17 hr light", "result": "≤ 8", "unit": "days"}, {"measurement": "Body weight (BW)", "setting": "[1]; 20 mg/kg of feed 12 d from day 13, 8 hr light, Day 12 (pre-molt)", "result": 1492, "unit": "g"}, {"measurement": "Body weight change (% BWC)", "setting": "[1]; 20 mg/kg of feed 12 d from day 13, 8 hr light, Day 22", "result": "−12.8", "unit": "%"}, {"measurement": "Body weight (BW)", "setting": "[1]; 20 mg/kg of feed 12 d from day 13, 8 hr light, Day 22 (end of molt)", "result": 1301, "unit": "g"}, {"measurement": "Body weight change (% BWC)", "setting": "[1]; 20 mg/kg of feed 12 d from day 13, 8 hr light, Day 34", "result": "−10.7", "unit": "%"}, {"measurement": "Body weight (BW)", "setting": "[1]; 20 mg/kg of feed 12 d from day 13, 8 hr light, Day 34 (final)", "result": 1332, "unit": "g"}, {"measurement": "Body weight (BW)", "setting": "[1]; 20 mg/kg of feed 12 d from day 13, 17 hr light, Day 12 (pre-molt)", "result": 1572, "unit": "g"}, {"measurement": "Body weight change (% BWC)", "setting": "[1]; 20 mg/kg of feed 12 d from day 13, 17 hr light, Day 22", "result": "−13.3", "unit": "%"}, {"measurement": "Body weight (BW)", "setting": "[1]; 20 mg/kg of feed 12 d from day 13, 17 hr light, Day 22 (end of molt)", "result": 1363, "unit": "g"}, {"measurement": "Body weight change (% BWC)", "setting": "[1]; 20 mg/kg of feed 12 d from day 13, 17 hr light, Day 34", "result": "−7.6", "unit": "%"}, {"measurement": "Body weight (BW)", "setting": "[1]; 20 mg/kg of feed 12 d from day 13, 17 hr light, Day 34 (final)", "result": 1453, "unit": "g"}, {"measurement": "Ovary Weight per hen", "setting": "[1]; 20 mg/kg of feed, 8 hr light", "result": 7.91, "unit": "g"}, {"measurement": "Oviduct Weight per hen", "setting": "[1]; 20 mg/kg of feed, 8 hr light", "result": 18.64, "unit": "g"}, {"measurement": "Ovary Weight per hen", "setting": "[1]; 20 mg/kg of feed, 17 hr light", "result": 31.41, "unit": "g"}, {"measurement": "Oviduct Weight per hen", "setting": "[1]; 20 mg/kg of feed, 17 hr light", "result": 43.81, "unit": "g"}, {"measurement": "Hens molted fully", "setting": "[1]; 40 mg T4/kg, 8 hr light, 7/12", "result": 58, "unit": "%"}, {"measurement": "Hens molted fully", "setting": "[1]; 40 mg T4/kg, 17 hr light", "result": 100, "unit": "%"}, {"measurement": "Time to significantly reduced egg production", "setting": "[1]; 40 mg T4/kg, 17 hr light", "result": "≤ 6", "unit": "days"}, {"measurement": "Body weight (BW)", "setting": "[1]; 40 mg/kg of feed 12 d from day 13, 8 hr light, Day 12 (pre-molt)", "result": 1488, "unit": "g"}, {"measurement": "Body weight change (% BWC)", "setting": "[1]; 40 mg/kg of feed 12 d from day 13, 8 hr light, Day 22", "result": "−17.9", "unit": "%"}, {"measurement": "Body weight (BW)", "setting": "[1]; 40 mg/kg of feed 12 d from day 13, 8 hr light, Day 22 (end of molt)", "result": 1222, "unit": "g"}, {"measurement": "Body weight change (% BWC)", "setting": "[1]; 40 mg/kg of feed 12 d from day 13, 8 hr light, Day 34", "result": "−12.6", "unit": "%"}, {"measurement": "Body weight (BW)", "setting": "[1]; 40 mg/kg of feed 12 d from day 13, 8 hr light, Day 34 (final)", "result": 1300, "unit": "g"}, {"measurement": "Body weight (BW)", "setting": "[1]; 40 mg/kg of feed 12 d from day 13, 17 hr light, Day 12 (pre-molt)", "result": 1436, "unit": "g"}, {"measurement": "Body weight change (% BWC)", "setting": "[1]; 40 mg/kg of feed 12 d from day 13, 17 hr light, Day 22", "result": "−18.0", "unit": "%"}, {"measurement": "Body weight (BW)", "setting": "[1]; 40 mg/kg of feed 12 d from day 13, 17 hr light, Day 22 (end of molt)", "result": 1178, "unit": "g"}, {"measurement": "Body weight change (% BWC)", "setting": "[1]; 40 mg/kg of feed 12 d from day 13, 17 hr light, Day 34", "result": "−14.8", "unit": "%"}, {"measurement": "Body weight (BW)", "setting": "[1]; 40 mg/kg of feed 12 d from day 13, 17 hr light, Day 34 (final)", "result": 1224, "unit": "g"}, {"measurement": "Ovary Weight per hen", "setting": "[1]; 40 mg/kg of feed, 8 hr light", "result": 9.32, "unit": "g"}, {"measurement": "Oviduct Weight per hen", "setting": "[1]; 40 mg/kg of feed, 8 hr light", "result": 14.25, "unit": "g"}, {"measurement": "Ovary Weight per hen", "setting": "[1]; 40 mg/kg of feed, 17 hr light", "result": 3.82, "unit": "g"}, {"measurement": "Oviduct Weight per hen", "setting": "[1]; 40 mg/kg of feed, 17 hr light", "result": 8.03, "unit": "g"}, {"measurement": "Mortality", "setting": "[1]; 20 and 40 mg T4/kg, 12 days", "result": "No mortality occurred"}, {"measurement": "Time to significantly reduced egg production", "setting": "[1]; 20 and 40 mg T4/kg, 8 hr light", "result": "≤ 4", "unit": "days"}, {"measurement": "2&4 Jun. 05 Egg Weight", "setting": "Bovans caged laying hens; 20 mg T4/kg diet", "result": 58.68, "unit": "g"}, {"measurement": "4 Jun. 05 Shell + Membrane", "setting": "Bovans caged laying hens; 20 mg T4/kg diet", "result": "0.466^a mm"}, {"measurement": "9 Jun. 05 (9th d Trt) Body Wt Change", "setting": "Bovans caged laying hens; 20 mg T4/kg diet", "result": "−0.50^b lb"}, {"measurement": "9 Jun. 05 Ovary + Oviduct", "setting": "Bovans caged laying hens; 20 mg T4/kg diet", "result": 4.59, "unit": "% B Wt"}, {"measurement": "25 May 05 Initial Body Wt", "setting": "Bovans caged laying hens; 20 mg T4/kg diet", "result": 3.49, "unit": "lb"}, {"measurement": "Days to 0% Egg Prod. (by Replicate)", "setting": "Bovans caged laying hens; 20 mg T4/kg diet", "result": "12.0^a Days"}, {"measurement": "2&4 Jun. 05 Egg Weight", "setting": "Bovans caged laying hens; 40 mg T4/kg diet", "result": 60.17, "unit": "g"}, {"measurement": "4 Jun. 05 Shell + Membrane", "setting": "Bovans caged laying hens; 40 mg T4/kg diet", "result": "0.446^a mm"}, {"measurement": "9 Jun. 05 (9th d Trt) Body Wt Change", "setting": "Bovans caged laying hens; 40 mg T4/kg diet", "result": "−0.54", "unit": "lb"}, {"measurement": "9 Jun. 05 Ovary + Oviduct", "setting": "Bovans caged laying hens; 40 mg T4/kg diet", "result": 3.19, "unit": "% B Wt"}, {"measurement": "25 May 05 Initial Body Wt", "setting": "Bovans caged laying hens; 40 mg T4/kg diet", "result": 3.57, "unit": "lb"}, {"measurement": "Days to 0% Egg Prod. (by Replicate)", "setting": "Bovans caged laying hens; 40 mg T4/kg diet", "result": 11, "unit": "days"}, {"measurement": "9 Jun. 05 (9th d Trt) Body Wt Change", "setting": "Bovans caged laying hens; [3]", "result": "−0.60^b lb"}, {"measurement": "Days to 0% Egg Prod. (by Replicate)", "setting": "Bovans caged laying hens; [3]", "result": "11.0^a Days"}, {"measurement": "Ending (10 d) Body Wt", "setting": "turkey breeder hens; [4]", "result": 23.03, "unit": "lb"}, {"measurement": "Liver Weight", "setting": "turkey breeder hens; [4]", "result": "143.0^bc g"}, {"measurement": "Ovary Weight", "setting": "turkey breeder hens; [4]", "result": "159.1^a g"}, {"measurement": "Oviduct Weight", "setting": "turkey breeder hens; [4]", "result": "124.1^a g"}, {"measurement": "Ending (10 d) Body Wt", "setting": "turkey breeder hens; [5]", "result": 25.11, "unit": "lb"}, {"measurement": "Liver Weight", "setting": "turkey breeder hens; [5]", "result": "144.6^b g"}, {"measurement": "Ovary Weight", "setting": "turkey breeder hens; [5]", "result": "160.5^a g"}, {"measurement": "Oviduct Weight", "setting": "turkey breeder hens; [5]", "result": "134.7^a g"}, {"measurement": "Ending (10 d) Body Wt", "setting": "turkey breeder hens; [6]", "result": 22.99, "unit": "lb"}, {"measurement": "Liver Weight", "setting": "turkey breeder hens; [6]", "result": "141.9^bc g"}, {"measurement": "Ovary Weight", "setting": "turkey breeder hens; [6]", "result": "129.1^a g"}, {"measurement": "Oviduct Weight", "setting": "turkey breeder hens; [6]", "result": "138.7^a g"}, {"measurement": "Regressing reproductive tracts", "setting": "turkey breeder hens; 10, 20, or 40 mg T4/kg diet, 10 days", "result": "not as effective as porcine thyroid powder"}, {"measurement": "Toxicity to broiler breeder males", "setting": "[2]; 25 mg/kg diet or more", "result": "toxic to broiler breeder males (death)"}, {"measurement": "Testes of broiler breeder males", "setting": "[2]; 25 or 40 mg T4/kg diet", "result": "testes shown to enlarge"}, {"measurement": "Adverse sign in roosters", "setting": "[2]; 25 or 40 mg/kg diet", "result": "“stroke blood” from the nostrils"}, {"measurement": "Time on treated feed until hens reduced feed intake, ceased egg production and began to molt feathers", "setting": "[2]; Cobb broiler breeder hens, 25 or 40 ppm", "result": "15 to 17", "unit": "days"}, {"measurement": "Tolerance of males for thyroxine (T4) alone", "setting": "[2]; excess causes mortality", "result": "< 25", "unit": "mg/kg diet"}, {"measurement": "Serum thyroxine level", "setting": "broiler chickens; first experiment (control 41.1)", "result": 88.7, "unit": "ng/mL"}, {"measurement": "Serum thyroxine level", "setting": "broiler chickens; second experiment (control 21.1)", "result": 69.3, "unit": "ng/mL"}, {"measurement": "Increase in annual fleece weight", "setting": "fine-wool Merino wethers", "result": 34, "unit": "%"}]}
